In paper PMC6702965, “Inhibition of Porcine Viruses by Different Cell-Targeted Antiviral Drugs” (Frontiers in Microbiology, 2019):
pIC50: −log10 of the molar value. Read-outs that look alike come from different tables or passages of the source.

Assays:
[1] = MTT cell viability assay; conditions: pig, IBRS-2 cells
[2] = system: ASFV Ba71V; assay type: cell-based, African swine fever virus
[3] = system: FMDV; set-up: species or system foot and mouth disease virus
[4] = MTT cell viability assay; conditions: African green monkey, Vero cells
[5] = MTT cell viability assay; conditions: African green monkey, COS cells
[6] = system: ASFV Ba71V; assay type: cell-based, African swine fever virus; remark: listed apart in the source
[7] = system: ASFV Ba71V; assay: microbe, parasite or virus in culture; assay type: cell-based, African swine fever virus; conditions: for pIC50: African swine fever virus
[8] = system: ASFV isolate E70; assay: microbe, parasite or virus in culture; assay type: cell-based; conditions: African swine fever virus, COS, read-out: IC50 on virus yield
[9] = system: ASFV; set-up: species or system African swine fever virus
[10] = MTT cell viability assay; conditions: hamster, BHK cells
[11] = system: FMDV C-S8; assay: microbe, parasite or virus in culture; assay type: cell-based, foot and mouth disease virus
[12] = system: FMDV C-S8; set-up: species or system C57 mice; conditions: mouse, in vivo
[13] = system: FMDV C-S8; assay type: cell-based, foot and mouth disease virus
[14] = system: FMDV C-S8; assay type: cell-based, foot and mouth disease virus; remark: listed apart in the source
[15] = system: SVDV SP93; assay: microbe, parasite or virus in culture; assay type: cell-based, swine vesicular disease virus
[16] = system: FMDV C-S8; conditions: mouse, in vivo
[17] = system: FMDV C-S8; assay type: cell-based, foot and mouth disease virus; remark: listed apart in the source
[18] = system: ASFV Ba71V; conditions: cited from earlier work
[19] = system: VSV Indiana; assay: microbe, parasite or virus in culture; assay type: cell-based, vesicular stomatitis virus
[20] = C57, mouse, in vivo
[21] = system: FMDV O-UK; assay: microbe, parasite or virus in culture; assay type: cell-based, foot and mouth disease virus
[22] = system: SVDV; conditions: ref Vazquez-Calvo et al., 2011; cited from earlier work
[23] = system: VSV; conditions: cited from earlier work
[24] = system: FMDV; conditions: cited from earlier work
[25] = read-out: IC50 on ASFV production

SMILES: C/C=C/C/C=C/CCC(=O)[C@H]1O[C@H]1C(N)=O [CRL, cerulenin]
- CC50 at 24 h [1]: 40 µM
- Expression of early virus protein p32 [2]: very low expression
- Expression of late ASFV proteins (p17, p12) [2]: No late ASFV proteins
- Direct virucidal effect (virotoxicity) [3]: no direct toxicity
- CC50 at 24 h [4]: 45 µM
- CC50 at 24 h [5]: 60 µM
- Effect of time of addition on virus yield [6]: recovery of virus productivity was observed when CRL was added as early as 0 h after infection
- pIC50 [7, 25]: 5.05
- pIC50 [8]: 5.52
- Direct virucidal effect (virotoxicity) [9]: no direct toxicity
- CC50 at 24 h [10]: 60 µM

SMILES: O=C(O)c1cc(O)c(O)c(O)c1 [G, gallic acid]
- Inhibition of FMDV growth [11]: Neither G nor PG inhibited FMDV growth

SMILES: CCCCCCCCCCCCOC(=O)c1cc(O)c(O)c(O)c1 [LG, lauryl gallate]
- Viral RNA copies (VRC) in blood, spleen, lung, heart and thymus [12]: significant reduction
- Amount of intracellular FMDV RNA [13]: not affected
- Extracellular virus (RNA) [13]: significantly reduced
- Positive strand viral RNA synthesis [13]: transiently inhibited
- Expression of structural (VP1) and non-structural (3C) FMDV proteins [14]: significantly reduced
- CC50 at 24 h [1]: 30 µM
- Direct virucidal effect (virotoxicity) [3]: no direct toxicity
- CC50 at 24 h [4]: 45 µM
- Reduction of virus productivity [15]: 1 log.u.
- pIC50 ([15]; Enterovirus B, read-out: IC50 on virus yield): 5.77
- Decrease in virus production [11]: at least 1 log.u.
- Reduction of virus yield [11]: up to 2 log.u
- pIC50 ([11]; Foot-and-mouth disease virus, BHK-21, read-out: IC50 on virus yield): 5.60 to 6.70
- CC50 at 24 h [5]: 33 µM
- Body weight [16]: lower weights
- Protection against FMDV challenge [16]: no protection
- Survival rate [16]: 70%
- Virus yield reduction [7]: about 3 log.u.
- pIC50 ([7]; COS, 24 h, read-out: IC50 on virus yield): 6.40
- pIC50 ([7]; Vero, 24 h, read-out: IC50 on virus yield): 6.00
- pIC50 [8]: 5.70
- Direct virucidal effect (virotoxicity) [9]: no direct toxicity
- CC50 at 24 h [10]: 75 µM
- Time of LG addition up to which virus productivity was blocked [17]: up to 7 h.p.i.
- Time of LG addition up to which virus production was inhibited [18]: up to 5 h.p.i.
- Reduction of virus productivity [19]: 2 log.u.
- pIC50 ([19]; Vesicular stomatitis virus, BHK-21, read-out: IC50 on virus yield): 6.05
- Non-toxic working concentrations [20]: up to 200 mg/kg
- Decrease in virus production [21]: at least 1 log.u.
- pIC50 ([21]; Foot-and-mouth disease virus, read-out: IC50 on virus yield): 6.15

SMILES: CCCCCCCCOC(=O)c1cc(O)c(O)c(O)c1 [OG, octyl gallate]
- Reduction of virus yields [11]: 2 log.u.
- Effect on ASFV infection [7]: inhibitory effect

SMILES: CCCOC(=O)c1cc(O)c(O)c(O)c1 [PG, propyl gallate]
- Inhibition of FMDV growth [11]: Neither G nor PG inhibited FMDV growth

SMILES: CCCC(CCC)C(=O)O [VPA, valproic acid]
- Susceptibility of infection to the drug [22]: not affected
- Expression of early virus protein p32 [2]: very low expression
- Expression of late ASFV proteins (p17, p12) [2]: No late ASFV proteins
- Susceptibility of infection to the drug [23]: susceptible
- Direct virucidal effect (virotoxicity) [3]: no direct toxicity
- CC50 at 24 h [4]: 50000 µM
- Effect of time of addition on virus yield [6]: gradual recovery of virus yields
- pIC50 [7, 25]: 2.52 to 2.60
- pIC50 [8]: 2.60
- Direct virucidal effect (virotoxicity) [9]: no direct toxicity
- Susceptibility of infection to the drug [24]: not affected
